Laboratory results reported in patent US11135308B2, “Maytansinoid derivatives with self-immolative peptide linkers and conjugates thereof” (priority 2017, dated 2021).

How the values were obtained:
H1703 Cells = experiment: In vitro cytotoxicity of predominant ADC metabolites, H1703; assay type: cell-based
Method: (§1) Assays were performed in flat bottom 96-well plates in triplicate for each data point. Test articles were first diluted in complete cell culture media using 5-fold dilution series and 100 μL were added into each well. The final concentrations typically ranged from 3×10^−8 M to 8×10^−14 M. The target cells were then added to the test articles at 1,500 to 3,000 cells per well in 100 μL of complete culture media. The mixtures were incubated at 37° C. in a humidified 5% CO2 incubator for 5 days. Viability of the remaining cells was determined by the WST-8 (Tetrazolium salt-8; 2-(2-methoxy-4-nitrophenyl)-3-(4-nitrophenyl)-5-(2,4-disulfophenyl)-2H-tetrazolium) based colorimetric assay using the Cell Counting Kit-8 (Dojindo Molecular Technologies, Inc., Rockville, Md.). The WST-8 is reduced by dehydrogenases in live cells to give a yellow-colored formazan product that is soluble in tissue culture media. […] The WST-8 signals were then measured using a microplate plate reader at optical density of 450 nm. The surviving fraction was calculated by dividing the value of each treated sample by the average value of untreated controls, and plotted against the test article concentrations in a semi-log plot for each treatment. IC50 values were determined using nonlinear regression (curve fit) with GraphPad Prism v5 program (GraphPad Software, La Jolla, Calif.). […]

COLO704 Cells = experiment: In vitro cytotoxicity of predominant ADC metabolites, COLO704; assay type: cell-based
Method: as §1

FRα-expressing KB cells = experiment: In vitro metabolism study in KB cells; assay type: in vitro ADME; conditions: KB cells treated with saturating amount of 17c conjugate for 24 hours; UHPLC/HRMS
Method: FRα-expressing KB cells were treated with a saturating amount of 17c conjugate for 24 hours. Catabolite-containing media was incubated with 5 mM NEM to cap any free thiol present and then captured by pre-bound protein A-anti-maytansinoid antibody complex. The catabolites were released by acetone extraction, and analyzed by UHPLC/HRMS.

H1975 Cells = experiment: In vitro cytotoxicity of predominant ADC metabolites, H1975; assay type: cell-based
Method: as §1

| SMILES | IC50 (H1703 Cells) [pM] | IC50 (COLO704 Cells) [pM] | catabolites identified in cell culture media (FRα-expressing KB cells) | IC50 (H1975 Cells) [pM] |
| --- | --- | --- | --- | --- |
| COc1cc2cc(c1Cl)N(C)C(=O)C[C@H](OC(=O)[C@H](C)N(C)C(=O)CCCCCSC)[C@]1(C)O[C@H]1[C@H](C)[C@@H]1C[C@@](O)(NC(=O)O1)[C@H](OC)/C=C/C=C(\C)C2 [metabolite 25a, DM-CO—(CH2)5-SMe] | 2.27 | 3.04 | major effluxed catabolites | – |
| COc1cc2cc(c1Cl)N(C)C(=O)C[C@H](OC(=O)[C@H](C)N(C)C(=O)CCCSC)[C@]1(C)O[C@H]1[C@H](C)[C@@H]1C[C@@](O)(NC(=O)O1)[C@H](OC)/C=C/C=C(\C)C2 [metabolite 25b, DM-CO—(CH2)3-SMe] | 5.92 | 6.88 | – | 5.6 |
